Where a name gives a salt, the structure may show the parent alone.
What was measured:
D(2) dopamine receptor = D(2) dopamine receptor (Homo sapiens, UniProt P14416)
[1] = molecular target: T1, Alpha-2A adrenergic receptor (Homo sapiens, UniProt P08913)
T1 sequence (P08913 whole entry): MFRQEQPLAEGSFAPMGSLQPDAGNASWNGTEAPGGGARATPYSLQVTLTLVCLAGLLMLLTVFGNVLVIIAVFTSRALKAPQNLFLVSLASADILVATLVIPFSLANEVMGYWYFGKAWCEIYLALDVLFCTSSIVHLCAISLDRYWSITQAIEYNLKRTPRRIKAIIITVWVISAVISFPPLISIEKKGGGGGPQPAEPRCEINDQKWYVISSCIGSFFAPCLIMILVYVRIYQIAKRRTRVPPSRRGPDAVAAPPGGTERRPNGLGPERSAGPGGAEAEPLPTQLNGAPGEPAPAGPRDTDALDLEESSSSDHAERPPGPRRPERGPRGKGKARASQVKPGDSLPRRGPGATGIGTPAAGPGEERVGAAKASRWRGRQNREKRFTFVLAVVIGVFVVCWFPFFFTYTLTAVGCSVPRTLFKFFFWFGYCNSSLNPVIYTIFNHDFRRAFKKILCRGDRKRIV

[2] = molecular target: T2, Alpha-1A adrenergic receptor (Homo sapiens, UniProt P35348)
T2 sequence (P35348 whole entry): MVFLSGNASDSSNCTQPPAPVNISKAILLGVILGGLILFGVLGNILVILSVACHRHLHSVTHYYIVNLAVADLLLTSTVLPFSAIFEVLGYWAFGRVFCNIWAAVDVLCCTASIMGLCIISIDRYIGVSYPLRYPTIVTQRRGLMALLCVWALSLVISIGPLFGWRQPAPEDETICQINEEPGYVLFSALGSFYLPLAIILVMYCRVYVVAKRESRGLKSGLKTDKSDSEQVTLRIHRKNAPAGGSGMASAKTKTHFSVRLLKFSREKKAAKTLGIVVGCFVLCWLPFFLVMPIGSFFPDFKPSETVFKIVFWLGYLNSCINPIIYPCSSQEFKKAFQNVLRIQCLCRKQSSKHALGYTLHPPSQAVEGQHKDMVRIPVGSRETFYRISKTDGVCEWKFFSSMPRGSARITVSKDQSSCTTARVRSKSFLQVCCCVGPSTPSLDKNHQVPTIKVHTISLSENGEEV

Chain of D(2) dopamine receptor (P14416 whole entry): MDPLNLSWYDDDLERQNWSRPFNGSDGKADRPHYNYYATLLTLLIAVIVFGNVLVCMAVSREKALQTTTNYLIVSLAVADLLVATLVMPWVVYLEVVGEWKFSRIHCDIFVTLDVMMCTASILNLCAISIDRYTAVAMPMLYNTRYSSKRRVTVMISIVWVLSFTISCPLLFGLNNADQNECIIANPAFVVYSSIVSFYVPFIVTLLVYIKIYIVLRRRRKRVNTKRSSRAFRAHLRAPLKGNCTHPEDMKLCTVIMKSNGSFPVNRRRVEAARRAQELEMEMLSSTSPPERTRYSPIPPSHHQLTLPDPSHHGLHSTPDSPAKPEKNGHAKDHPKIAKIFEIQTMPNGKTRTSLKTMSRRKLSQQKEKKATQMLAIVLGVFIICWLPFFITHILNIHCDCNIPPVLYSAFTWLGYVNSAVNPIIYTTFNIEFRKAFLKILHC

Compound	Ki (D(2) dopamine receptor) [nM]	Ki [1] [nM]	Ki [2] [nM]
CCc1c(C)[nH]c2c1C(=O)C(CN1CCOCC1)CC2 (stereo unspecified) [Moban]	120		
CN(C)CCCN1c2ccccc2Sc2ccc(C(F)(F)F)cc21 [TRIFLUPROMAZINE]	2.8		
CC(C)(C)[C@]1(O)CCN2C[C@H]3c4ccccc4CCc4cccc(c43)[C@@H]2C1		310	56
OCCN1CCN(CCCN2c3ccccc3Sc3ccc(Cl)cc32)CC1 [4-[3-(2-chlorophenothiazin-10-yl)propyl]-1-piperazineethanol]	1.4		
CN1CCCCC1CCN1c2ccccc2Sc2ccc([S+](C)[O-])cc21 (stereo unspecified)	19	1600	2
O=C(CCCN1CCC2(CC1)C(=O)NCN2c1ccccc1)c1ccc(F)cc1 [8-[4-(4-fluorophenyl)-4-oxidanylidene-butyl]-1-phenyl-1,3,8-triazaspiro[4.5]decan-4-one]		660	1.2
CN(C)CC/C=C1\c2ccccc2Sc2ccc(Cl)cc21	8		
CN(C)CCCN1c2ccccc2Sc2ccccc21	160	900	6
CN1CCN(CCCN2c3ccccc3Sc3ccc(C(F)(F)F)cc32)CC1	2.6		
CN1CCN(CC/C=C2/c3ccccc3Sc3ccc(S(=O)(=O)N(C)C)cc32)CC1 [MLS000028463]	0.45	200	11
CN1CCN(C2=Nc3ccccc3Oc3ccc(Cl)cc32)CC1 [13-chloro-10-(4-methylpiperazin-1-yl)-2-oxa-9-azatricyclo[9.4.0.0^{3,8}]pentadeca-1(11),3,5,7,9,12,14-heptaene]			28
